# Data published in patent US10889546B2, “Alkynyl pyridine prolyl hydroxylase inhibitor, and preparation method and medical use thereof” (Jiangsu Hengrui Medicine Co., Ltd., priority 2015, dated 2021).
# Like-named read-outs stand apart in the source and are kept apart here.
# Assays:
# Prolyl hydroxylase 2 = Prolyl hydroxylase 2 (Homo sapiens (Human), UniProt Q9GZT9); assay: Prolyl hydroxylase 2 inhibition, fluorescence polarization method; assay type: biochemical
# VEGF [1] = assay: VEGF expression at the cellular level (VEGF kit); assay type: cell-based; settings: Hep3B human hepatoma cell, 24 h after administration
# Experimental: (§1) The test of the activity of some compounds of the present invention on VEGF at the cellular level and EPO at the cellular level is shown as follows. The method is in accordance with Bioorganic & Medicinal Chemistry Letters 23 (2013) 5953-5957, and the test was carried out by using VEGF and EPO kit respectively 24 h after administration.
# (§2) Hep3B Cell: Human Hepatoma Cell
# EPO [2] = assay: EPO expression at the cellular level (EPO kit); assay type: cell-based; settings: Hep3B human hepatoma cell, 24 h after administration
# Experimental: as §1, §2
# HIF-α = assay: Western-blot test of HIF-α level in cells; assay type: cell-based, human; settings: Hep3B cell, 50 μM, 250 μM, 24 hours after administration
# Experimental: At the same time, Western-blot test at the cellular level was also carried out for some of the compounds of the present invention.
# FIG. 1 is the results of Western-blot test of some compounds at the cellular level (Hep3B cell: human hepatoma cell; the compound concentration: 50 μM, 250 μM, 24 hours after administration)
# VEGF [3] = assay: VEGF level at the animal level (VEGF kit); assay type: in vivo; settings: C57Bl/6 mice, male, 8-9 weeks old; 50 μM; 24 h / 4 h after administration
# Experimental: (§3) The test of the activity of some compounds of the present invention on VEGF at the animal level and EPO at the cellular level is shown as follows. The method is in accordance with Journal of Medicinal Chemistry 55 (2012) 2945-2959, and the test was carried out by using VEGF and EPO kit respectively 4 h after administration.
# EPO [4] = assay: EPO level at the animal level (EPO kit); assay type: in vivo; settings: C57Bl/6 mice, male, 8-9 weeks old; 50 μM; 24 h / 4 h after administration
# Experimental: as §3
# [5] = Table 2 comparison, same test method, same batch, read-out: Prolyl hydroxylase 2 (IC50 nM), example compounds of the present invention
# [6] = fluorescence polarization, read 1 h after adding the drugs, read-out: Prolyl hydroxylase 2 (IC50 nM)
# Sequence of Prolyl hydroxylase 2 (Q9GZT9 whole entry): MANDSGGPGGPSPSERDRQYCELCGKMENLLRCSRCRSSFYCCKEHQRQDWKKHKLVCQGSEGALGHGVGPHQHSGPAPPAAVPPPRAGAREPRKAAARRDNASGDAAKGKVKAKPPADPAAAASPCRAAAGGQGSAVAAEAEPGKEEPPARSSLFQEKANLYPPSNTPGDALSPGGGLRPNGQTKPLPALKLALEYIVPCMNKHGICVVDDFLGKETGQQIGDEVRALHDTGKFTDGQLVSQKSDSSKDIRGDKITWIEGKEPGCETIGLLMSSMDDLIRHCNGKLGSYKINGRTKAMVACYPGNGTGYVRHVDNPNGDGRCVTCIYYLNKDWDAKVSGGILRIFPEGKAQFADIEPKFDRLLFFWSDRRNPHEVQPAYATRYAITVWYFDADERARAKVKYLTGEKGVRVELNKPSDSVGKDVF
IC50 (Prolyl hydroxylase 2; [5]) [nM],IC50 (Prolyl hydroxylase 2; [6]) [nM],SMILES,Whether it can increase the expression of VEGF in cells (VEGF [1]),Whether it can increase the expression of EPO in cells (EPO [2]),Whether it can increase the level of HIF-α in cells (HIF-α),increased level of VEGF at the animal level (FIG. 2) (VEGF [3]),increased level of EPO at the animal level (FIG. 2) (EPO [4])
13.7 ± 1.1,13.7 ± 1.1,"O=C(O)CNC(=O)c1ncc(C#CCOc2ccc(Cl)cc2)cc1O [Example 44, 2-(3-Hydroxy-5-(3-p-chlorophenoxypropyn-1-yl))picolinamido acetic acid]",Yes,Yes,Yes,,
,,"Cc1cccc(C#Cc2cnc(C(=O)NCC(=O)O)c(O)c2)c1 [Example 14, 2-(3-Hydroxy-5-m-methylphenylethynyl)picolinamido acetic acid]",Yes,Yes,Yes,increased level,increased level
169.5 ± 0.5,169.5 ± 0.5,"O=C(O)CNC(=O)c1ncc(C#CCOc2ccccc2)cc1O [Example 33, 2-(3-Hydroxy-5-(3-phenoxypropyn-1-yl))picolinamido acetic acid]",Yes,Yes,,,
,,"Cc1nc(C(=O)NCC(=O)O)c(O)c2ccc(Oc3ccccc3)cc12 [FG-4592, reference compound]",Yes,Yes,,increased level,increased level
,326.5 ± 0.8,"O=C(O)CNC(=O)c1ncc(C#CCNc2ccccc2)cc1O [Example 64, 2-(3-Hydroxy-5-(3-anilinopropyn-1-yl))picolinamido acetic acid]",Yes,Yes,,,
,70.4 ± 0.6,Cc1ccccc1OCC#Cc1cnc(C(=O)NCC(=O)O)c(O)c1 [Example 35],Yes,Yes,,,
,,O=C(O)CNC(=O)c1ncc(C#CCNc2ccc(Cl)cc2)cc1O [Example 65],Yes,Yes,Yes,,
,187 ± 8.3,"O=C(O)CNC(=O)c1ncc(C#CCOc2ccc(F)cc2)cc1O [Example 47, 2-(3-Hydroxy-5-(3-p-fluorophenoxypropyn-1-yl))picolinamido acetic acid]",Yes,Yes,,increased level,increased level
,175 ± 2.3,"O=C(O)CNC(=O)c1ncc(C#CCOc2ccccc2Cl)cc1O [Example 45, 2-(3-Hydroxy-5-(3-o-chlorophenoxypropyn-1-yl))picolinamido acetic acid]",Yes,Yes,,,
,102 ± 5,"O=C(O)CNC(=O)c1ncc(C#CCOc2cccc(Cl)c2)cc1O [Example 46, 2-(3-Hydroxy-5-(3-m-chlorophenoxypropyn-1-yl))picolinamido acetic acid]",Yes,Yes,,,
,,"Cc1cccc(OCC#Cc2cnc(C(=O)NCC(=O)O)c(O)c2)c1C [Example 38, 2-(3-Hydroxy-5-(3-(2,3-dimethylphenyl)oxypropyn-1-yl))picolinamido acetic acid]",Yes,Yes,Yes,,
,110 ± 22,"Cc1ccc(OCC#Cc2cnc(C(=O)NCC(=O)O)c(O)c2)cc1 [Example 34, 2-(3-Hydroxy-5-(3-p-tolyloxypropyn-1-yl))picolinamido acetic acid]",Yes,Yes,Yes,,
,,"O=C(O)CNC(=O)c1ncc(C#Cc2ccc(F)cc2)cc1O [Example 15, 2-(3-Hydroxy-5-p-fluorophenylethynyl)picolinamido acetic acid]",Yes,Yes,Yes,increased level,increased level
